Several values for one entry are separate records, joined by “and”; a condition that tells them apart may be missing. Equal values may be shown once.
How the values were obtained:
[1] = molecular target: T1, GGDEF-only construct of DgcB (Bdellovibrio bacteriovorus, UniProt Q6MPU8); assay: co-purification of c-di-GMP with the protein; format: binding; details: I-site
T1 construct: gene Bd0742; GGDEF domain only, aa 148-310 (own numbering), C-terminal thrombin-cleavable 8xHis tag, E. coli BL21 lambda DE3
T1 sequence (Q6MPU8 158-320): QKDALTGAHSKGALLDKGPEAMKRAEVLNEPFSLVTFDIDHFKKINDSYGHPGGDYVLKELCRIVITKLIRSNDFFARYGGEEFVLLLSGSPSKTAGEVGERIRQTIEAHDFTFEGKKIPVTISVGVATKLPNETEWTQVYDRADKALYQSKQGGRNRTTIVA

DgcB (full-length) = molecular target: T2, DgcB (full-length) (Bdellovibrio bacteriovorus, UniProt Q6MPU8); assay: X-ray crystal structure, […] Å, co-purified ligand; format: binding; details: I-site (RxxD: R218, D221) of both monomers; two c-di-GMP per dimer; product, feedback inhibitor
T2 construct: gene Bd0742; full-length aa 1-310 (own numbering), C-terminal thrombin-cleavable 8xHis tag, E. coli BL21 lambda DE3; dimer with c-di-GMP
T2 sequence (Q6MPU8 11-320): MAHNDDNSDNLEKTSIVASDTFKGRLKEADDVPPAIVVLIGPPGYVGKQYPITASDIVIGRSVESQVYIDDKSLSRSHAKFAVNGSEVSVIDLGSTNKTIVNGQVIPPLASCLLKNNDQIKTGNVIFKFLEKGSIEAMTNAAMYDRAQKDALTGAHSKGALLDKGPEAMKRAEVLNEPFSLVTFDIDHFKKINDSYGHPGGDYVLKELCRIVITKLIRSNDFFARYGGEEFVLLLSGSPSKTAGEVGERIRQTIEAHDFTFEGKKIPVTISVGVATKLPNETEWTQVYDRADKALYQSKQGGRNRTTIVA

[2] = molecular target: DgcB S15C-S73C-R218A (disulphide-stapled double cysteine mutant), full length (Bdellovibrio bacteriovorus HD100); assay: SEC; non-reducing gel-filtration (buffer without DTT) after overnight incubation with 5 mM oxidised glutathione, sample at 50 mg/ml; sizes calibrated to known standards

Molecule: Nc1nc2c(ncn2[C@@H]2O[C@@H]3COP(=O)(O)O[C@H]4[C@@H](O)[C@H](n5cnc6c(=O)[nH]c(N)nc65)O[C@@H]4COP(=O)(O)O[C@H]3[C@H]2O)c(=O)[nH]1 [c-di-GMP]
- co-purification of c-di-GMP with the protein [1]: the GGDEF-only construct purifies with a small amount of c-di-GMP at the I-site
- X-ray crystal structure, 1.79 Å, co-purified ligand (DgcB (full-length)): The dimer is stabilized by two molecules of c-di-GMP (classically intercalating via their planar bases)

Molecule: DgcB S15C-S73C-R218A (disulphide-stapled double cysteine mutant), full length (enzyme)
- stoichiometry N [2]: 4 and 2
